Results published in patent US11173133B2, “Zeaxanthin formulations with additional ocular-active nutrients, for protecting eye health and treating eye disorders” (ZeaVision LLC, priority 2003, dated 2021).
Like-named read-outs stand apart in the source and are kept apart here.

Experiments:
macular degeneration [1] = conditions: cited from earlier work
macular degeneration [2] = conditions: oral dosages; Newsome et al 1988 and others; cited from earlier work
[3] = small-scale tests of high-dose zeaxanthin in human volunteers (safety, skin tone); format: in vivo; conditions: dosages of 50 to 80 mg/day
Description: (§1) As mentioned above, the categories of pharmaceutical preparations and dietary (nutritional) supplements overlap, and there is no specific upper limit for dosages that would cause a dietary (nutritional) supplement to be reclassified as a pharmaceutical preparation. Safety data that was gathered on zeaxanthin, using high-dosage tests involving rats, indicated a “no adverse effect limit” (NOEL) level of at least 1200 mg/day. […] Accordingly, people who want tans, or who are planning to go on a vacation or other trip that will involve exposure to abnormally high levels of sunlight, may take large quantities of zeaxanthin (up to or even exceeding 100 mg/day), to help them avoid sunburn and obtain a deeper tanned color on their skin. Such use, even at very high quantities, would be regarded as taking a dietary supplement rather than a pharmaceutical, and such dosages would still remain far below the NOAEL levels that were determined by animal tests.

sunburn = sunburn after controlled high-intensity UV exposure of small skin areas in human volunteers; format: in vivo; conditions: 50 to 80 mg/day; small areas of skin exposed to medical-grade UV lamp
Description: as §1

wet macular degeneration = experiment: laser treatment using verteporfin in a patient with wet macular degeneration taking zeaxanthin; format: in vivo, human; conditions: one patient, daily zeaxanthin capsules before and after treatment
Text: As another example of the uncertainties and doubts that surround zeaxanthin among skilled physicians who treat eye diseases, the Inventor has personal knowledge of a patient who has the “wet” (or “exudative”) form of macular degeneration. This disease is characterized by aggressive growth of capillaries in and around certain layers of the retina, and it leads to rapid and devastating loss of vision. The best known treatment for wet AMD is called laser photocoagulation, or photodynamic therapy. It uses a drug called verteporfin, which is activated by a laser that is shone directly into the eyes of patients who have taken the drug. In October of 2003, a ZeaVision customer (a person) who was taking zeaxanthin capsules on a daily basis was scheduled to have a laser treatment using verteporfin, at the Wilmer Eye Institute in Baltimore, which is affiliated with the Johns Hopkins School of Medicine. This patient told their treating physician, who is one of the top experts in the world on treating macular degeneration, that they were taking zeaxanthin capsules on a daily basis. […] The results of that treatment, as measured up until the date this is being written, have been outstanding, and have been much better than was expected by the treating physician. […]

[4] = rats, high-dosage tests; Roche Vitamins 75-day Premarket Notification, FDA number 95S-0316; cited from earlier work
[5] = chemical / lab tests, cited from earlier work
[6] = naturally-occurring dextrorotatory stereoisomer; cited from earlier work

SMILES: [Zn] [zinc]
- level of protection against macular degeneration (macular degeneration [1]; AREDS-1, high dosages (zinc 80 mg/day), some but not all patient categories): low and weak level of protection
- benefits of zinc in the AREDS-1 trial (macular degeneration [1]; compared with the combination of vitamins A, C, and E): strong enough to roughly match the benefits provided by a combination of vitamins A, C, and E
- results of oral zinc in macular degeneration and other ocular problems (macular degeneration [2]): good, although not especially strong

SMILES: CC1=C(/C=C/C(C)=C/C=C/C(C)=C/C=C/C=C(C)/C=C/C=C(C)/C=C/C2=C(C)C[C@@H](O)CC2(C)C)C(C)(C)C[C@H](O)C1 [zeaxanthin]
- safety in human volunteers [3]: entirely safe
- risk and severity of sunburn (sunburn): effective in reducing a person's risk and severity of sunburn
- results of laser-verteporfin treatment (wet macular degeneration): outstanding
- "no adverse effect limit" (NOEL) level [4]: at least 1200 mg/day
- potency in absorbing and quenching oxygen free radicals (anti-oxidant), versus lutein [5]: more potent and effective than lutein
- potency in absorbing and quenching oxygen free radicals (anti-oxidant), versus lutein ([5]; listed as Zeaxanthin): better and more potent anti-oxidant than lutein

SMILES: O=C(O)CCCC[C@@H]1CCSS1 (racemic) [lipoic acid]
- anti-oxidant activity versus S (levorotatory) isomers [6]: better anti-oxidant activity
